Test results: patent US6482849B1, “Inhibitors of α4β1 mediated cell adhesion” (Tanabe Seiyaku Co., Ltd., priority 1997, dated 2002)
Like-named read-outs stand apart in the source and are kept apart here.

What was measured:
[1] = tested on: VLA-4 integrin-dependent eosinophil infiltration; assay: Dextran pleurisy model (dextran-induced pleural leukocyte infiltration); assay type: in vivo, C57BL/6 mice; details: Mus musculus, 4 h post-induction; for change in vivo at 25 mg/kg: 25 mg/kg × 2 iv (0h,+1h relative to dextran); for change in vivo at 50 mg/kg: 50 mg/kg × 2 iv (0h,+1h relative to dextran)
Procedure: C57BL/6 mice (Jackson, Bar Harbor, Me.;), 6-8 weeks old, weighing 20-25 g were used throughout. All mice were acclimated for at least 7-14 days after arrival and maintained under controlled temperature (20-22° C.) and a 12 hr daily light cycle (6.00 A.M.-6.00 P.M.). Mice were housed in laminar flow racks and checked biweekly for viral infections (mouse hepatitis virus, minute virus of mice, rodent orphan parvovirus, Sendai) with kits obtained from Oreganon Teknika (Durham, N.C.) using established enzyme-linked immunoabsorbent assays. Mice testing positive for any of the above were omitted from the study. All mice were fed standard laboratory chow (Upjohn Lab Rodent Irradiated Mouse Chow, #5011-3, PMI Feeds, St. Louis, Mo.) and acidified drinking water (pH 5.0) ad libitum.
Intrapleural injections were made using a 27 G needle cut to 3-4 mm and blunted by filing. Injections were made by inserting the needle between the mid-intercostal ribs on the right side of the thoracic cavity.
Dextran (MW 5-40×10^6, St Louis, Mo.) was injected as a 10% solution in saline in a volume of 100 μl/mouse. Care was taken to avoid bleeding at the site of injection at which the intercostal muscles were cut to facilitate smooth insertion of the needle.
Pleural leukocytes were collected as follows: 4 h post-induction, pleural inflammatory exudate was removed by washing with 2×1.0 ml Ca^++/Mg^++ free HBSS (Gibco, Grand Island, N.Y.) containing 45 mg EDTA/100 ml HBSS, 4° C. Total leukocyte counts were made by hemocytometer following erythrocyte lysis in 2% acetic acid in PBS buffer; exudate leukocyte pellets were resuspended in serum for cytospin preparations and stained (Diff Quik, Baxter Healthcare, McGraw Park, Ill.) for differential leukocyte counts (neutrophils, eosinophils, and mononuclear leukocytes).
The pleural cavities of mice receiving either no intrapleural injection, or saline were washed and the cells counted in the same way to estimate baseline or saline-induced pleural leukocyte counts respectively.
All drugs were dissolved in PBS and the pH adjusted to 7.5 with NaOH. Each drug was administered intravenously through the retroorbital sinus at hourly intervals (0-3 h) starting from time “0” as indicated.
The following camphoric acid analogues were tested for their inhibitory effects on dextran-induced leukocyte infiltration: Examples 4, 12, 54, 63, 166, 93, 180, 181, 183, 184, 217, Camphoric acid or PBS (saline) was administered iv. as a control. Inhibition of eosinophil infiltration, which was suppressed by anti-alpha-4 Mab (PS/2, 50%), was used as a readout of VLA-4 antagonist activity of the camphoric acids tested. Data for neutrophils are also reported.

[2] = target: T1, α4β1 integrin (Jurkat cell adhesion to immobilized CS-1 derived peptide CLHPGEILDVPST) (Homo sapiens, UniProt P05556+P13612); assay: Jurkat-CS-1 Assay; assay type: cell-based; details: Jurkat cells on CS-1 peptide coated plates
T1 construct: 100 μl of Jurkat cells (2.5×10^6 cells/ml) in DMEM plus BSA; endogenous in cells; host or cells: Jurkat T-cell line
T1 sequence (P13612 34-1032): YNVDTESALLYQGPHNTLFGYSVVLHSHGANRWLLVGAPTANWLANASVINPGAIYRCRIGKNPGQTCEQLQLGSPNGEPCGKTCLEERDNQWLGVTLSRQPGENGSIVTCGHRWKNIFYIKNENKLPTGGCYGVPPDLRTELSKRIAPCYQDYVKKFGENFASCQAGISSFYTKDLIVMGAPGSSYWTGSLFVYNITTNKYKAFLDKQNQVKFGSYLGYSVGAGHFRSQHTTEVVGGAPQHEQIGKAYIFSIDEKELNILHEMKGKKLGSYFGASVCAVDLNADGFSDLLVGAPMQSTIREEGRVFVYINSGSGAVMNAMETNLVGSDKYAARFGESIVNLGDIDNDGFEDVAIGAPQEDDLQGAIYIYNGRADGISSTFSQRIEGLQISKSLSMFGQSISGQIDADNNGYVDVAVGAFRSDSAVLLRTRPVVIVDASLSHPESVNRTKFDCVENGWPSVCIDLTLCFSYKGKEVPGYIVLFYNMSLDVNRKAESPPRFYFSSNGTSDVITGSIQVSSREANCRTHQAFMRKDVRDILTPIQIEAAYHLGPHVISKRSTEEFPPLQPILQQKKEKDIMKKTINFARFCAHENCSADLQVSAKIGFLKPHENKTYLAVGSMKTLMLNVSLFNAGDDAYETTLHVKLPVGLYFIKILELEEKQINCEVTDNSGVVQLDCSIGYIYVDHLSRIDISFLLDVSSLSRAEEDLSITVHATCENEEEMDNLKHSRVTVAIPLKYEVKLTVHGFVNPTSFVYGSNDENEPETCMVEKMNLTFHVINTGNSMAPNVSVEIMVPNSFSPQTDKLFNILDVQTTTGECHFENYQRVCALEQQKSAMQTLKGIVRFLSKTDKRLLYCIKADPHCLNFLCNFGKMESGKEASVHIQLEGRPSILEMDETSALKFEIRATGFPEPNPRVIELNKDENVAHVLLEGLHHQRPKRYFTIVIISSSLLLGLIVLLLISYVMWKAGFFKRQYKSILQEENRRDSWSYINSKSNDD
T1 sequence (P05556 21-798): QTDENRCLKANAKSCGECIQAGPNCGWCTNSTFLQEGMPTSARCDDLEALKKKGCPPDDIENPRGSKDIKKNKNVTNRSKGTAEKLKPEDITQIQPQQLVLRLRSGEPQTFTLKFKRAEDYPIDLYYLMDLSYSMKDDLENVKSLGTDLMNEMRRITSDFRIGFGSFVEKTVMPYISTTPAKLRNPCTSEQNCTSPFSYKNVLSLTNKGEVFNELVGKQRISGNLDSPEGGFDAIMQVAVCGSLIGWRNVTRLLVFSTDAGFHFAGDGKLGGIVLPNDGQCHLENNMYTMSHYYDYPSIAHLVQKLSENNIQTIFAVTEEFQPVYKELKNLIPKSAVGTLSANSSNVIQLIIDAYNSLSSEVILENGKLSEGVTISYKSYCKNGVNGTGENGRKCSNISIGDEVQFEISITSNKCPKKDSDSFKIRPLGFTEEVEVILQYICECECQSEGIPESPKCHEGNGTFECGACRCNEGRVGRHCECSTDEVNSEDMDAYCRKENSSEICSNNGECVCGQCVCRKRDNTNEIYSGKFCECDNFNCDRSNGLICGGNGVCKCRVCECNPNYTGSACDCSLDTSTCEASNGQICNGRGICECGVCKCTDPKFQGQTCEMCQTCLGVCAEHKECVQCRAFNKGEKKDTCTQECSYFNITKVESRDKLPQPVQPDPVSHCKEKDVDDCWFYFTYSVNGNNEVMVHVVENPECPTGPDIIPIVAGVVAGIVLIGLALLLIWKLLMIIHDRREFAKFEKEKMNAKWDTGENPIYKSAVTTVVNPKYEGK
Procedure, shortened: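 CS-1 peptide was SPDP-crosslinked onto HSA-coated plates and blocked with BSA. Jurkat cells (2.5×10^6 cells/ml) in DMEM/BSA were mixed with compound, generally at 100, 20, 5 and 1.25 μM, and allowed to adhere for 1 hr at 37° C. Bound cells were fixed, stained with toluidine blue and quantified by OD590.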

[3] = target: T2, α4β1 integrin (Jurkat T-cell adhesion to IL-1 stimulated endothelial cell monolayers) (Homo sapiens, UniProt P05556+P13612); assay: Jurkat-Endothelial Cell Adhesion Assay (Jurkat EC); assay type: cell-based; details: Jurkat cells on IL-1 stimulated HUVEC monolayers
T2 construct: a T-cell line, Jurkat, known to express the α4β1 integrin; host or cells: Jurkat T-cell line
T2 sequence (P13612 34-1032): as the sequence (P13612 34-1032) above
T2 sequence (P05556 21-798): as the sequence (P05556 21-798) above
Procedure, shortened: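 BCECF-loaded Jurkat cells (5×10^5) mixed with compound (generally 100, 20, 5 and 1.25 μM) and added to HUVEC monolayers prestimulated 4 hr with 0.1 ng/ml IL-1, in DMEM-HSA. After 5 min on ice and 20 min at 37° C, washed; fluorescence gives % adhesion relative to no-compound control set at 100%.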

[4] = tested on: contact hypersensitivity response; details: in vivo; cited from earlier work
[5] = Eosinophil, read-out: %Δ Pleural Leukocytes, Eos
[6] = Neutrophil, read-out: %Δ Pleural Leukocytes, Neutro

Row | IC50 [2] | IC50 [3] | melting point | Compound | change in vivo at 25 mg/kg [1, 5] | change in vivo at 50 mg/kg [1, 5] | change in vivo at 25 mg/kg [1, 6] | change in vivo at 50 mg/kg [1, 6] | Contact hypersensitivity response [4]
1 | ≤ 80 nM | ≤ 800 nM | 203 to 205 °C | CC1(C)[C@@H](C(=O)N[C@@H](Cc2ccc(NC(=O)c3c(Cl)cccc3Cl)cc2)C(=O)O)CC[C@@]1(C)C(=O)NCC(N)=O [Example 180, (1S-cis)-N-[[3-[[(2-Amino-2-oxoethyl)amino]-carbonyl]-2,2,3-trimethylcyclopentyl]carbonyl]-4-[(2,6-dichlorobenzoyl)amino]-L-phenylalanine] | -50 to -10% | -50 to -10% | -50 to -10% | -50 to -10% | –
2 | – | – | – | EILDV | – | – | – | – | blocked
